Values joined by “and” are separate entries in the source; they are usually repeats but may differ in a detail not shown here. Equal values may be shown once. A value given as a limit tells only on which side of the number the result lay.

1 compound from patent US20170029366A1, “INHIBITORS OF HISTONE LYSINE SPECIFIC DEMETHYLASE (LSD1) AND HISTONE DEACETYLASES (HDACS)” (THE JOHNS HOPKINS UNIVERSITY, priority 2014, published 2017) can be followed below.

Assay [1] relates to H3K4Me2 in H460 cells. As to the kind of experiment: Western blot of H3K4Me2 in H460 cells. In kind it is cell-based. Conditions: 48 h, compared with LNCaP.
Assay [2] deals with H3K4Me2 in MB-231 cells. Nature of the assay: Western blot of H3K4Me2 in MB-231 cells. Conditions: 48 h. In kind it is cell-based. A general note: In western blotting, separated proteins are transferred to a membrane and probed.
Assay [3] concerns the target T1, GST-LSD1 (Homo sapiens, UniProt O60341).
Assay [4] has as its system Immature primary cortical neurons. Nature of the assay: Oxidative toxicity (HCA) and neuron viability assay (MTT). The class given is cell-based, Sprague Dawley rats. Conditions: 0.5 μM, 5 mM HCA, MTT.
Protocol: The next day cells were rinsed and then placed in medium containing 5 mM HCA. […] The next day, cell viability was assessed by the MTT assay (Promega). […] The two-way ANOVA followed by the Bonferroni posttest was used to measure statistical significance. p<0.05 was considered to be statistically significant. Each bar represents four different rat cultures.
Assay [5] concerns H3K4Me2 in LNCaP cells. Nature of the assay: Western blot of histone H3 marks in LNCaP cells. In kind it is cell-based.
Description: Histone extracts were isolated as described previously. […] Data are presented from one representative experiment.
H3K4Me was detected using a polyclonal rabbit antibody (abcam ab8895). H3K4Me2 was detected using a monoclonal rabbit antibody (abcam ab32356). H3K4Me3 was detected using a polyclonal rabbit antibody (abcam ab8580). […] H3K9Me2 was detected using a monoclonal mouse antibody (abcam ab1220). H3K36Me3 was detected using a polyclonal rabbit antibody (abcam ab9050). H3K9Ac was detected using a polyclonal rabbit antibody (abcam ab4441). Total H3 was detected using a polyclonal rabbit antibody (abcam ab1791). LSD1 was detected using a polyclonal rabbit antibody (abcam ab17721). Actin was detected using a monoclonal mouse antibody (Sigma A1978).
The test system of assay [6] is H3K4Me2 in A549 cells. Nature of the assay: Western blot of H3K4Me2 in A549 cells. In kind it is cell-based. Particulars: 48 h.
The test system of assay [7] is H460 cells. Nature of the assay: [3H] thymidine incorporation assay in H460 cells. The class given is cell-based. Particulars: Homo sapiens, NCI-H460, 48 h, read-out: IC50 of cellular proliferation rate (3H-thymidine incorporation). (In general: Dividing cells build labelled thymidine or BrdU into new DNA.)
Assay [8] deals with T1, GST-LSD1. Nature of the assay: MassSQUIRM LSD1 inhibition assay. In kind it is biochemical. On the set-up: made in house; host or cells: E. coli. Conditions: 50 μM inhibitor, 215 nM GST-LSD1, 30 min, 25° C.
Protocol: MassSQUIRM inhibition experiments were performed in triplicate as described previously. […] The demethylase reactions were run at 25° C. for 30 min and then analyzed as reported previously.
For assay [9], the system named is LNCaP cells. Nature of the assay: [3H] thymidine incorporation assay in LNCaP cells. The class given is cell-based. Conditions: Homo sapiens, 48 h, read-out: IC50 of cellular proliferation rate (3H-thymidine incorporation).
Protocol: The effects of bizine on cell proliferation using a ^3H-thymidine incorporation assay were examined as a measure of the rate of DNA synthesis.
6 hours prior to harvesting cells, 10 μL of 0.1 mCi/mL Thymidine [methyl-3H] (ARC ART0178) was added to each well. The cells were then harvested (PerkinElmer) and radioactivity was measured with a liquid scintillation counter (PerkinElmer MicroBeta).
Assay [10] has as its target T2, MAO-A (Homo sapiens, UniProt P21397).
T2 construct: purchased Sigma M 7316
T2 sequence (P21397 1-527): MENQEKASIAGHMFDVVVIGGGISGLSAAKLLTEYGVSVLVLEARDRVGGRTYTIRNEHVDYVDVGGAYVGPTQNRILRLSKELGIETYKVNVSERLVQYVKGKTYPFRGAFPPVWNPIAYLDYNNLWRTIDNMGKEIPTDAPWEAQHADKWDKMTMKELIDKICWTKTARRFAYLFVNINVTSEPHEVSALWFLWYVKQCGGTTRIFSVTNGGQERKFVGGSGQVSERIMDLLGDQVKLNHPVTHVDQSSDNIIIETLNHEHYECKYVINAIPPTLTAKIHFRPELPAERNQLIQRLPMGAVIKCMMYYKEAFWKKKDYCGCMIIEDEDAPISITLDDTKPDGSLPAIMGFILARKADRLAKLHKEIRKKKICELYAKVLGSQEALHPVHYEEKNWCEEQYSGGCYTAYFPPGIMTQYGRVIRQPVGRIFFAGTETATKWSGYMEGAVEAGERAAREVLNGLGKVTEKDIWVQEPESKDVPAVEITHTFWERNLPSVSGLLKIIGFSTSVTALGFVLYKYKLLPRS
As to the kind of experiment: MAO-A activity and inhibition assay (peroxidase-coupled, tyramine). In kind it is biochemical.
Protocol: (§1) MAO-A/B activity was measured spectrophotometrically using a peroxidase-coupled assay as previously described.
(§2) Each experiment was repeated at least two independent times and repeat measured values were typically within 20% of each other.

The target in assay [11] is T3, MAO-B (Homo sapiens, UniProt P27338).
T3 construct: purchased Sigma M 7441
T3 sequence (P27338 1-520): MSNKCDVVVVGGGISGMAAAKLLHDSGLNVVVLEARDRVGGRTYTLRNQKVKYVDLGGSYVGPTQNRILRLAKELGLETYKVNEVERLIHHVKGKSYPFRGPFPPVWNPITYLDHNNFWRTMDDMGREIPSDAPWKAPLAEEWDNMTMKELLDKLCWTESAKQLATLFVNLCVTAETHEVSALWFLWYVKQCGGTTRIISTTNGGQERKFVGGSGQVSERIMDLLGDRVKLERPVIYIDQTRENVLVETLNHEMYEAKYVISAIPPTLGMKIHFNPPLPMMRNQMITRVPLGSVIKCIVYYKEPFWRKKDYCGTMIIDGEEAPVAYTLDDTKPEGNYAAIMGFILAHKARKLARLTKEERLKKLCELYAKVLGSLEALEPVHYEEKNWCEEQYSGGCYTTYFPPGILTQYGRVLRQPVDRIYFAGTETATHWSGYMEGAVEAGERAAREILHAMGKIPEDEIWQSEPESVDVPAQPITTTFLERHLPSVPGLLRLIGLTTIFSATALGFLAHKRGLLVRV
As to the kind of experiment: MAO-B activity and inhibition assay (peroxidase-coupled, tyramine). In kind it is biochemical.
Protocol: as §1, §2

What is called EC50 is the concentration that produces a half-maximal response. On to `Cl.Cl.NNCCc1ccc(NC(=O)CCCc2ccccc2)cc1` [Compound 12d, N-[4-(2-Hydrazinylethyl)phenyl]-4-phenylbutanamide dihydrochloride], for which the “effects on H3K4Me2 levels (in words)” value in assay [1] is listed as “comparable dose-response effects”. The “concentration required for reproducible increases in H3K4Me2” value in assay [2] and in [6] was 20 µM in each case. Besides, the “k(inact)” value was 0.15 min⁻¹ and 0.15 ± 0.017 min⁻¹ in assay [3] (GST-LSD1, peroxidase-coupled assay, dihydrochloride); 0.30 ± 0.11 min⁻¹ in assay [10]; 0.26 ± 0.14 min⁻¹ in assay [11]. In addition, the “LSD1 inhibitory potency (in words)” value in assay [3] (structure-activity comment on Table 1) was “most potent LSD1 inhibitor”. The “survival of neurons after HCA-treatment” value in assay [4] is “significantly enhanced survival of neurons”. Moreover, the “time of compound exposure at which changes in H3K4Me2 could be detected” value in assay [5] (10 μM) was not above 6 h. Also, the concentration giving a half-maximal response (EC50) in assay [5] (Homo sapiens, 48 h, Western blot, read-out: EC50 of increase in H3K4Me2 signal) was approximately 2000 nM. For the same compound, the values for the IC50 in assay [7] and in assay [9] were 14 µM and 16 µM, respectively. Besides, the “LSD1 inhibition in MassSQUIRM assay (in words)” value in assay [8] is “very substantial LSD1 inhibition”.
